≈ marks a conversion by molar mass, not a printed value.
What was measured:
[1] = format: physicochemical
From the text: As described herein, a compound of the invention may also be provided in the form of a complex, with a complexing agent.

CCRF-CEM = experiment: Cytotoxic activity against mammalian cells in tissue culture (MTT); format: cell-based, human
Method in brief: (§1)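 Cells at 1.2×10^4/well were exposed to serial 2× DMSO dilutions for 120 h at 37 °C: CCRF-CEM in RPMI 1640 + 10% FBS, HepG2 in MEM + 10% FBS, LLC-PK1 in Medium 199 + 3% FBS. MTT was added for 4 h and A540 read. IC50 is the concentration halving A540 versus DMSO control.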

HepG2 = experiment: as above; format: cell-based, human
Method in brief: as §1

[2] = system: Candida glabrata DSM 11226; experiment: Antifungal activity in vitro, serial dilution in RPMI 1640; format: cell-based; conditions: Table 2A; RPMI 1640, pH 7.0
Method in brief: (§2)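 Optical density at 531 nm served as the growth read-out after serial dilution of compound in RPMI 1640 buffered to pH 7.0 per the NCCLS M27-A2 standard. IC50 values came from concentration–A531 plots (50% of control), MIC values from the lowest concentration holding A531 at no more than 20% of control.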

[3] = system: Candida stellatoidea CBS 1905; experiment: as above; format: cell-based; conditions: Table 2B
Method in brief: as §2

Candida krusei DSM 6128 = experiment: as above; format: cell-based; conditions: Table 2A; RPMI 1640, pH 7.0
Method in brief: as §2

[4] = system: Trichoderma viride LOCK E159; experiment: as above; format: cell-based; conditions: Table 2B
Method in brief: as §2

[5] = system: Candida lusitaniae DSM 70102; experiment: as above; format: cell-based; conditions: Table 2A; RPMI 1640, pH 7.0
Method in brief: as §2

Candida arborea KKP 319 = experiment: as above; format: cell-based; conditions: Table 2B
Method in brief: as §2

[6] = system: Candida pseudotropicalis KKP 324; experiment: as above; format: cell-based; conditions: Table 2B
Method in brief: as §2

[7] = system: Candida parapsilosis DSM 5784; experiment: as above; format: cell-based; conditions: Table 2B
Method in brief: as §2

[8] = system: Candida lipolytica KKP 322; experiment: as above; format: cell-based; conditions: Table 2B
Method in brief: as §2

[9] = system: Candida quilliermondii DSM 11947; experiment: as above; format: cell-based; conditions: Table 2B
Method in brief: as §2

[10] = system: Aspergillus niger LOCK E201; experiment: as above; format: cell-based; conditions: Table 2B
Method in brief: as §2

[11] = system: Saccharomyces cerevisiae ATCC 9763; experiment: as above; format: cell-based
Method in brief: as §2

[12] = system: Candida dubliniensis CBS 7987; experiment: as above; format: cell-based; conditions: Table 2B
Method in brief: as §2

[13] = system: Candida tropicalis KKP 334; experiment: as above; format: cell-based; conditions: Table 2A; RPMI 1640, pH 7.0
Method in brief: as §2

[14] = system: Candida albicans ATCC 10231; experiment: as above; format: cell-based
Method in brief: as §2

Candida albicans F2 = experiment: Antifungal activity towards resistant (MDR) strains; format: cell-based; conditions: fluconazole sensitive, parent strain for F5
Method in brief: (§3)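 Optical density at λ=660 nm served as read-out in a broth microdilution test (buffered RPMI 1640, M27-A2 standard procedure). MIC corresponded to the concentration reducing A660 to no more than 20% of the control sample value.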

Candida albicans Gu4 = experiment: as above; format: cell-based; conditions: fluconazole sensitive, parent strain for Gu5
Method in brief: as §3

Candida albicans STY19 = experiment: as above; format: cell-based; conditions: 5674 mutant derivative, deletion of CDR1
Method in brief: (§4)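 Compounds are serially diluted in buffered RPMI 1640 per the M27-A2 broth dilution standard. Cell suspension density is measured at 660 nm. Plots of A660 against compound concentration give the MIC, defined as the concentration holding A660 to at most 20% of control.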

Candida albicans STY31 = experiment: as above; format: cell-based; conditions: 5674 mutant derivative, deletion of CDR1 and CDR2
Method in brief: as §4

Candida albicans B4 = experiment: as above; format: cell-based; conditions: fluconazole-resistant due to the overexpression of CaMDR1
Method in brief: as §4

Candida albicans 5674 = experiment: as above; format: cell-based; conditions: C. albicans 5674 overexpressing CDR1 and CDR2
Method in brief: as §4

Candida albicans F5 = experiment: as above; format: cell-based; conditions: fluconazole-resistant due to the overexpression of CaMDR1 and ERG11
Method in brief: as §4

Candida albicans Gu5 = experiment: as above; format: cell-based; conditions: fluconazole-resistant due to the overexpression of CDR1 and CDR2
Method in brief: as §3

Candida albicans B3 = experiment: as above; format: cell-based; conditions: fluconazole sensitive, parent strain for B4
Method in brief: as §3

Candida albicans STY7 = experiment: as above; format: cell-based; conditions: 5674 mutant derivative, deletion of CDR2
Method in brief: as §4

LLC-PK1 = experiment: Cytotoxic activity against mammalian cells in tissue culture (MTT); format: cell-based, pig
Method in brief: as §1

Human erythrocytes = experiment: Hemotoxicity (hemolytic activity); conditions: human erythrocytes
Method in brief: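 Human erythrocytes in saline (2×10^7/ml) were incubated with serially diluted compound at 37 °C for 30 min, then centrifuged. Released hemoglobin was read as A540 against 0.1% Triton X-100 as full hemolysis. EH50 is the interpolated concentration giving 50% of the control A540.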

[15] = Table 2A, RPMI 1640, pH 7.0, A531 at most 20% of control

SMILES: CCCN(CC(=O)C(O)C(O)C(O)CO)C1C(O)C(C)OC(OC2C=CC=CC=CC=CCCC=CC=CC(C)C(O)C(C)C(C)OC(=O)CC(O)CC(O)CCC(O)C(O)CC(O)CC3(O)CC(O)C(C(=O)O)C(C2)O3)C1O.CNCC(O)C(O)C(O)C(O)CO [Compound N59, N-methyl-D-glucamine salt of N-fructosyl-N-n-propylnystatin A1]
- water solubility of the salt [1]: water soluble

SMILES: C[C@@H]1[C@H](O)[C@@H](C)/C=C/C=C/CC/C=C/C=C/C=C/C=C/C(O[C@H]2O[C@H](C)[C@@H](O)[C@H](N)[C@@H]2O)CC2O[C@](O)(CC(O)C(O)CCC(O)CC(O)CC(O)CC(=O)O[C@H]1C)CC(O)C2C(=O)O (some centres unmarked) [Nystatin, Nystatin A1]
- Cytotoxicity IC50 CCRF-CEM (CCRF-CEM): >100 µg/mL
- Cytotoxicity IC50 HepG2 (HepG2): 24.9 ± 2.332 µg/mL
- Antifungal activity Candida glabrata DSM 11226 MIC [2]: 1 µg/mL
- MIC Candida stellatoidea CBS 1905 [3]: 1 µg/mL (≈ 1.08 µM)
- Antifungal activity Candida krusei DSM 6128 MIC (Candida krusei DSM 6128): 1 µg/mL
- MIC Trichoderma viride LOCK E159 [4]: 1 µg/mL (≈ 1.08 µM)
- Antifungal activity Candida lusitaniae DSM 70102 MIC [5]: 0.25 µg/mL
- MIC Candida arborea KKP 319 (Candida arborea KKP 319): 1 µg/mL (≈ 1.08 µM)
- MIC Candida pseudotropicalis KKP 324 [6]: 1 µg/mL (≈ 1.08 µM)
- MIC Candida parapsilosis DSM 5784 [7]: 1 µg/mL (≈ 1.08 µM)
- MIC Candida lipolytica KKP 322 [8]: 0.5 µg/mL (≈ 0.54 µM)
- MIC Candida quilliermondii DSM 11947 [9]: 0.5 µg/mL (≈ 0.54 µM)
- MIC Aspergillus niger LOCK E201 [10]: 1 µg/mL (≈ 1.08 µM)
- Antifungal activity Saccharomyces cerevisiae ATCC 9763 MIC [11, 15]: 0.5 µg/mL
- MIC Saccharomyces cerevisiae ATCC 9763 ([11]; Table 2B): 0.5 µg/mL (≈ 0.54 µM)
- MIC Candida dubliniensis CBS 7987 [12]: 1 µg/mL (≈ 1.08 µM)
- Antifungal activity Candida tropicalis KKP 334 MIC [13]: 0.5 µg/mL
- Antifungal activity Candida albicans ATCC 10231 IC50 ([14]; Table 2A, RPMI 1640, pH 7.0, A531 50% of control): 0.23 µg/mL
- Antifungal activity Candida albicans ATCC 10231 MIC [14, 15]: 0.5 µg/mL
- MIC Candida albicans ATCC 10231 ([14]; Table 2B): 0.5 µg/mL (≈ 0.54 µM)
- MIC Candida albicans F2 (Candida albicans F2): 1 µg/mL (≈ 1.08 µM)
- MIC Candida albicans Gu4 (Candida albicans Gu4): 0.5 µg/mL (≈ 0.54 µM)
- MIC Candida albicans STY19 (Candida albicans STY19): 1 µg/mL (≈ 1.08 µM)
- MIC Candida albicans STY31 (Candida albicans STY31): 1 µg/mL (≈ 1.08 µM)
- MIC Candida albicans B4 (Candida albicans B4): 1 µg/mL (≈ 1.08 µM)
- MIC Candida albicans 5674 (Candida albicans 5674): 1 µg/mL (≈ 1.08 µM)
- MIC Candida albicans F5 (Candida albicans F5): 1 µg/mL (≈ 1.08 µM)
- MIC Candida albicans Gu5 (Candida albicans Gu5): 1 µg/mL (≈ 1.08 µM)
- MIC Candida albicans B3 (Candida albicans B3): 0.5 µg/mL (≈ 0.54 µM)
- MIC Candida albicans STY7 (Candida albicans STY7): 1 µg/mL (≈ 1.08 µM)
- Cytotoxicity IC50 LLC-PK1 (LLC-PK1): >100 µg/mL
- % of hemolysis at the concentration 60 μg ml^−1 (Human erythrocytes; 60 μg ml^−1): 100%
- % of hemolysis at the concentration 300 μg ml^−1 (Human erythrocytes; 300 μg ml^−1): 100%
- EH10 (Human erythrocytes; concentration causing 10% of hemolysis): 22.13 µg/mL
